Experiments:
[1] = system: HCT-116; assay: Cytotoxicity against human HCT116 cells assessed as live cells after 48 to 72 hrs by MTT assay; assay type: functional, cell-based
[2] = system: HCT-116; assay: Drug uptake in human HCT116 cells at 1 uM after 30 mins by confocal microscopy; assay type: ADME, cell-based; conditions: hct-116, 0.5 h
[3] = system: HeLa; assay: Drug uptake in human HeLa cells at 1 uM after 30 mins using Nile Red by confocal microscopy; assay type: ADME, cell-based; conditions: 0.5 h
[4] = system: HCT-116; assay: Cytotoxicity against human HCT116 cells; assay type: functional, cell-based

Row | Drug uptake [2] | Drug uptake [3] | Structure (SMILES) | IC50 [1] [nM] | IC50 [4] [nM]
1 | – | – | C#CCCCCCCCCCCC#C[C@@H](O)C#C | 370 | –
2 | – | – | C#C[C@H](O)C#CCCCCCCCCCCc1cn(CCCCc2ccc3ccc4cccc5ccc2c3c45)nn1 | 900 | –
3 | Active | – | C#C[C@H](O)C#CCCCCCCCCCCc1cn(-c2cc3ccc(O)cc3oc2=O)nn1 | 3000 | –
4 | Active | Active | C#C[C@H](O)C#CCCCCCCCCCCc1cn(CC2=C3C(C)=CC(C)=[N+]3[B-](F)(F)n3c(C)cc(C)c32)nn1 | 10000 | –
5 | Active | – | C#C[C@H](O)C#CCCCCCCCCCCc1cn(CCCNc2ccc([N+](=O)[O-])c3nonc23)nn1 | 1100 | –
6 | – | – | C#C[C@@H](O)/C=C/CCCCCCCCCCCCCCC | 90 | 60

Source: ChEMBL document CHEMBL3621089, “Fluorophore-tagged pharmacophores for antitumor cytotoxicity: Modified chiral lipidic dialkynylcarbinols for cell imaging” (Bioorg Med Chem Lett, 2015)
